# In patent publication US11254987B2, “PD-L1 promoter methylation in cancer” (Genentech, Inc., priority 2015, dated 2022):
# Assays:
# Assay type in all cases: cell-based, human
# [1] = system: STAT3 near CpG1 in the PD-L1 promoter; test: ChIP-Seq: binding of STAT3 near CpG1 in the PD-L1 promoter; conditions: H358, methylation at PD-L1 promoter LOW; IFNγ stimulation
# Method: (§1) NSCLC cell lines were grown to the proper confluency, and treated cells were fixed with 1% formaldehyde for 15 min and quenched with 0.125 M glycine. Chromatin was isolated by the addition of lysis buffer and disruption with a Dounce homogenizer. Lysates were sonicated, and the DNA was sheared to an average length of 300-500 bp. Genomic DNA (Input) was prepared by treating aliquots of chromatin with RNase, proteinase K, and heat for de-crosslinking. Treatment was followed by ethanol precipitation. Pellets of genomic DNA were resuspended and the resulting DNA was quantified on a NanoDrop spectrophotometer. Extrapolation to the original chromatin volume allowed quantitation of the total chromatin yield.
# (§2) An aliquot of chromatin (30 μg) was pre-cleared with protein A agarose beads (Invitrogen). […]
# (§3) Illumina sequencing libraries were prepared from the ChIP and Input DNAs by the standard consecutive enzymatic steps of end-polishing, dA-addition, and adaptor ligation. After a final PCR amplification step, the resulting DNA libraries were quantified and sequenced on HiSeq 2500 or NexSeq 500. Sequences (50 nt reads, single end or 75 nt reads, single end) were aligned to the human genome (hg19) using the BWA algorithm. […] Peak locations were determined using the MACS algorithm (v1.4.2.) with a cutoff of pvalue=1×10^−7. […]
# PD-L1 RNA expression = PD-L1 RNA expression by qRT-PCR in treated NSCLC cell lines (FIG. 3, 4A)
# Method: (§4) NSCLC cell lines were procured from American Type Cell Culture (ATCC) or academic sources and cultured in RPMI 1640 medium supplemented with 10% fetal bovine serum (FBS) and 2 mM L-glutamine. Cells were detached for splitting and/or experimental analysis following a PBS wash and incubation with Accutase detachment medium (Sigma). Cells were treated with 0.1 mM trichostatin A (“TSA,” Sigma) and/or 1 ng/mL interferon gamma (IFNγ) for 24 hours and 1 mM 5-azacitidine-dC (5-aza-dC, Sigma), for 3 days qd (i.e., once a day) or 6 days q2d (i.e., every other day).
# (§5) Buffer RLT Plus (Qiagen) was used to lyse the cells for RNA and DNA extraction from the same lysate using the AllPrep DNA/RNA Mini Kit (Qiagen). RNA expression was analyzed by microarray on the GeneChip Human Genome U133 Plus 2.0 Array (Affymetrix) by Asuragen, Inc, and by qPCR using TaqMan Gene Expression Assays (Life Technologies). Data was analyzed using Genomics Suite (Partek), Spotfire (TIBCO), JMP (SAS), and IPA (Ingenuity). DNA was analyzed on the INFINIUM® HumanMethylation450 BeadChip (Illumina). DNA was bisulfite-modified using the Zymo DNA Gold Methylation kit (Zymo Research) and amplified with bisulfite specific sequencing primers targeting the CD274 promoter region. PCR products were TA-subcloned and sequenced using standard methods (ABI). ABI sequence files were analyzed using BIQ Analyzer software (C. Bock).
# Cells from each of the cell lines were exposed to one of five conditions: (1) no treatment; (2) treatment with 1 mM 5-azacitidine-dC (5-aza-dC, a DNA demethylation agent); (3) treatment with 0.1 mM trichostatin A (TSA, a class I and class II mammalian histone […]); (4) treatment with 1 ng/mL interferon gamma (IFNg); or (5) treatment with a combination of 5-aza-dC, TSA, and IFNg. PD-L1 RNA expression was then measured by qRT-PCR.
# STAT3 = test: Western blot of IFNg/JAK/STAT signaling pathway: STAT3
# Method: (§6) Protein lysates were generated using Cell Extraction Buffer (Life Technologies), supplemented with SigmaFAST Protease Inhibitor Tablets (Sigma) and Phosphatase Inhibitor Cocktail 1 and 2 (Sigma). Lysates centrifuged at 20,000×g for 10 minutes at 4° C., and the supernatants were then removed for analysis by Western Blot (WB). Samples were treated with NuPage Novex LDS and SRA Buffers (Life Technologies) and loaded onto a Bis-Tris Gel (Life Technologies) alongside SeeBlue Plus2 molecular weight standard (Life Technologies). Gels were transferred to nitrocellulose membranes using the iBlot system (Life Technologies) and then blocked with Odyssey Blocking Buffer (LI-COR) for 1 hour at room temperature. Gels were stained with antibodies against human PD-L1 (in-house), β-actin (Sigma); p/t STAT1, p-STAT3-Y705, p-STAT3-5727, and t-STAT3 (all Cell Signaling) diluted in Odyssey Blocking Buffer+0.01% Tween-20. Primary antibodies were detected secondary antibodies from LI-COR in Odyssey Blocking Buffer+0.01% Tween-20+0.001% SDS and analyzed on the Odyssey CLx system (LI-COR).
# Next, western blots were performed to determine whether the IFNg/JAK/STAT signaling pathway plays a role in the IFNg-mediated induction of PD-L1 transcript and protein levels in A427, H322T, H292, and H358. Briefly, cells from A427, H322T, H292, and H358 were either (a) untreated; (b) treated with IFNg for 30 minutes; or (c) treated with IFNg for 24 hours. The cells were then processed into protein lysates and run out on gels, blotted and probed with the following antibodies: (1) anti-phospho-STAT1; (2) anti-total-STAT1: (3) anti-phospho-STAT3-Y705; (4) anti-phospho-STAT3-S727; (5) anti-total-STAT3; and (6) β-actin (loading control). […] STAT3 was further activated by the mTOR and MAPK pathways at S727.
# Next, the relationship between PD-L1 promoter methylation and the IFNg/JAK/STAT pathway was investigated in A427 and H358 using siRNA. […] In order to determine which STAT was most crucial for PD-L1 expression in the context of methylation, cells from each cell line were dosed with (1) no siRNA; (2) Scrambled control; (3) siSTAT1; (4) siSTAT3; (5) IFNg, or (6) siSTAT1, siSTAT3, and IFNg.
# [2] = system: STAT1 near CpG1 in the PD-L1 promoter; test: ChIP-Seq: binding of STAT1 near CpG1 in the PD-L1 promoter; conditions: H358, methylation at PD-L1 promoter LOW; IFNγ stimulation
# Method: as §1, §2, §3
# STAT1 = test: Western blot of IFNg/JAK/STAT signaling pathway: STAT1
# Method: as §6
# Next, western blots were performed to determine whether the IFNg/JAK/STAT signaling pathway plays a role in the IFNg-mediated induction of PD-L1 transcript and protein levels in A427, H322T, H292, and H358. […]
# PD-L1 protein expression = test: Surface PD-L1 protein expression by FACS after IFNg treatment (FIG. 4A)
# Method: as §4
# For FACS analysis, cells were detached then washed twice in FBS Staining Buffer (BD Biosciences). Cells were then stained with either PE-conjugated anti-human PD-L1 or isotype control (BD Biosciences) and then washed and analyzed on the FACSCanto II Analyzer (BD Biosciences).
# PD-L1 protein expression loosely correlated with RNA expression in this subset of cell lines, both at baseline and following IFNg stimulation. […] In the A427 cell line, PD-L1 protein expression remained low. In the H292 and H358 cell lines, PD-L1 protein expression increased 3-4 fold, and in H322T, PD-L1 protein expression increased more than 48-fold as compared to baseline levels. […] As discussed above, baseline levels of PD-L1 protein in H322T were low.
# PD-L1 expression [3] = test: PD-L1 expression after IFNg and/or STAT1 and STAT3 siRNA knockdown in A427 and H358 (FIG. 4C); conditions: H358 (unmethylated)
# Method: as §6
# Next, the relationship between PD-L1 promoter methylation and the IFNg/JAK/STAT pathway was investigated in A427 and H358 using siRNA. […]
# PD-L1 expression [4] = test: PD-L1 expression after 5-aza-dC treatment of the CGP NSCLC cell line panel (FIG. 6C, 6D)
# Method: as §4, §5
# NSCLC cell lines from the Cancer Genome Project (CGP) were used to create a scatter plot directly comparing smoothened CpG1 and CpG5 methylation (M-value) on the X axis and PD-L1 expression (RNA-seq, Log 2-count) on the Y axis. […] PD-L1 baseline expression in these cell lines is highly affected by the level of promoter methylation. The CGP cell lines analyzed in FIG. 6A were then categorized into three methylation groups: (1) low (i.e., low to no methylation at both CpG1 and CpG5), (2) intermediate (i.e., CpG1 or CpG5 site methylated), or (3) high (CpG1 and CpG5 both methylated). These groups were plotted on the X axis, with basal PD-L1 expression by RNA-seq plotted on the Y and median expression shown for each group. […] Group (1) (i.e., low) had the highest median PD-L1 expression, with Group (2) (i.e., intermediate) and Group (3) (i.e., high) methylation groups showing lower median PD-L1 expression.
# The cell lines in the CPG NSCLC cell line panel were then treated with 5-aza-dC in order to the effect global demethylation would have on PD-L1 expression in a dataset with a larger number of cell lines. […] Additionally, two cell lines in this panel are known to have been raised from two separate samples from one patient, H1993 (low) and H2073 (intermediate).
# [5] = A427 following stimulation with IFNg (FIG. 4C)
molecule,measurement,setting,value
"interferon gamma [IFNg, interferon gamma, used at 1 ng/mL to stimulate cells]",Binding (chIP STAT3),[1],bound and YES
same,PD-L1 RNA expression,PD-L1 RNA expression; A427 (high methylation) after IFNg stimulation,0.012 2^−DCt
same,PD-L1 RNA induction,"PD-L1 RNA expression; A427, H322T, H292 and H358 stimulated with IFNg",increases
same,PD-L1 RNA expression,PD-L1 RNA expression; H292 (low methylation) after IFNg stimulation,0.102 2^−DCt
same,PD-L1 RNA expression,"PD-L1 RNA expression; H322T (medium methylation) after IFNg stimulation, baseline 0.018",1.356 2^−DCt
same,PD-L1 RNA expression,"PD-L1 RNA expression; H358 (low methylation, high baseline) after IFNg stimulation",no significant changes
same,induction of activated STAT3,STAT3; [5],strong induction
same,p-STAT3-Y705,"STAT3; H292, following 30 min IFNg treatment",constitutively activated
same,p-STAT3-5727 activation,"STAT3; H358, before and after stimulation, early and late timepoints",did not show p-STAT3-5727 activation
same,p-STAT3-Y705,"STAT3; H358, by 24 hrs following IFNg stimulation",lost
same,Activation of the JAK/STAT signaling pathway,"STAT3; all cell lines except H358, by 24 hrs IFNg",observed
same,Binding (chIP STAT1),[2],bind and YES
same,induction of activated STAT1,STAT1; [5],strong induction
same,p-STAT1 activation,"STAT1; all four cell lines (A427, H322T, H292, H358) following IFNg stimulation",robust
same,PD-L1 protein expression,PD-L1 protein expression; A427 following IFNg treatment,remained low
same,PD-L1 protein expression increase,"PD-L1 protein expression; H292 following IFNg treatment, vs baseline",3-4 fold
same,PD-L1 protein expression increase,"PD-L1 protein expression; H322T following IFNg treatment, compared to baseline levels",more than 48 fold
same,PD-L1 protein expression increase,"PD-L1 protein expression; H358 following IFNg treatment, vs baseline",3-4 fold
same,surface PD-L1 protein levels,"PD-L1 protein expression; all four cell lines (A427, H322T, H292, H358) following IFNg treatment",increased
same,PD-L1 expression,PD-L1 expression [3],further induced
"Nc1ncn([C@H]2C[C@H](O)[C@@H](CO)O2)c(=O)n1 [5-aza-dC, 5-azacitidine-dC]",PD-L1 RNA expression,"PD-L1 RNA expression; A427 (high methylation), 3 days of 5-aza-dC treatment",increased
same,PD-L1 RNA expression,"PD-L1 RNA expression; H322T (medium methylation), 3 days of 5-aza-dC treatment",increased
same,PD-L1 RNA expression,"PD-L1 RNA expression; H661 (high methylation at CpG1 and CpG5), 3 days of 5-aza-dC treatment",increased
same,PD-L1 RNA expression,"PD-L1 RNA expression; LXFL529 (high methylation), 3 days of 5-aza-dC treatment",increased
same,PD-L1 expression,PD-L1 expression [4]; CGP NSCLC cell line panel treated with 5-aza-dC,significantly induced
same,PD-L1 expression,PD-L1 expression [4]; H1993 (low methylation) following 5-aza-dC treatment,no significant changes
same,PD-L1 expression,PD-L1 expression [4]; H2073 (intermediate methylation) following 5-aza-dC treatment,significant PD-L1 expression induction
same,induction of methylation-suppressed PD-L1 expression,"PD-L1 expression [4]; only Group (3) (high methylation) cell lines, 5-aza-dC",significant induction
"CC(/C=C/C(=O)NO)=C\[C@@H](C)C(=O)c1ccc(N(C)C)cc1 [TSA, trichostatin A]",PD-L1 RNA expression,"PD-L1 RNA expression; H322T only, of H661, LXFL529, A427, H2073, H322T, H1993, 0.1 mM TSA",increase
